According to PubChem BioAssay AID1648 (Sanford-Burnham Center for Chemical Genomics, 2009):
Calls of active or inactive are those of the source. No rule for the calls is given here.

Biological target: Serine/threonine-protein kinase mTOR (Homo sapiens) (UniProt P42345)
Assay: binders of mTOR FRB domain, biophysical, NMR (AID 1648)
Conditions: NMR binding to FRB domain, chemical shift

Serine/threonine-protein kinase mTOR (Homo sapiens), sequence (P42345 2015-2114): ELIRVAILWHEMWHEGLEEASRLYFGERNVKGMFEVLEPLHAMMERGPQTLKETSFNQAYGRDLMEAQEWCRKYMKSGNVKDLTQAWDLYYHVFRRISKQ

| Compound | Kd |
| --- | --- |
| COc1cc(O)c2c(=O)cc(-c3ccc(OC)c(-c4c(O)cc(O)c5c(=O)cc(-c6ccc(O)cc6)oc45)c3)oc2c1 | > 4 mM (inactive) |
| Cc1nn(-c2ccccc2)c(Cl)c1C(N)=O | > 4 mM (inactive) |
| NC1=C(c2ccccc2)C(=O)c2ccccc21 | > 4 mM (inactive) |
| Cc1nc2nc(COc3ccccc3)nn2c(C)c1Cl | > 4 mM (inactive) |
| Cc1cc(C(=O)N2CCC3(CC2)OCCO3)cs1 | > 4 mM (inactive) |
| O=CN1CCN(C2CC(=O)N(c3ccccc3)C2=O)CC1 (stereo not drawn) | > 4 mM (inactive) |
| Oc1ccccc1N=Cc1cccnc1 | > 4 mM (inactive) |
| NC(=O)c1ccc2c(c1)OCO2 | > 4 mM (inactive) |
| CC(C)(C)Cc1nc(-c2ccccn2)no1 | > 4 mM (inactive) |
| CCOC(=O)c1csc(C)n1 | > 4 mM (inactive) |
| O=C1CC(N2CCC(O)CC2)C(=O)N1c1ccc(F)cc1 (stereo not drawn) | > 4 mM (inactive) |
| Cc1nc(-c2ccc(C(=O)O)s2)cs1 | > 4 mM (inactive) |
| NCc1ccc2c(c1)CCO2 | > 4 mM (inactive) |
| COc1cc(/C=C2/NC(=S)NC2=O)cc(Cl)c1O | > 4 mM (inactive) |
| CC(=O)Oc1cc2c(C(C)=O)coc2c2ccccc12 | > 4 mM (inactive) |
| O=C(O)C(O)C(O)C(O)C(O)C(=O)O (stereo not drawn) | > 4 mM (inactive) |
| Cc1occc1C(=O)NC1CCN(C)CC1 | > 4 mM (inactive) |
| CC1CCC2(OC1)OC1CC3C4CCC5C[C@@H](O)CCC5(C)C4=CCC3(C)C1[C@@H]2C (stereo partly drawn) | > 4 mM (inactive) |
| CC1=C2[C@H]3OC(=O)[C@@H](C)[C@@H]3CC[C@@]2(C)C=CC1=O | > 4 mM (inactive) |
| COc1ccc(-c2oc3c(CC=C(C)C)c(O[C@@H]4O[C@H](CO)[C@@H](O)[C@H](O)[C@H]4O)cc(O)c3c(=O)c2O[C@@H]2O[C@@H](C)[C@H](O)[C@@H](O)[C@H]2O)cc1 | > 4 mM (inactive) |
| O=C(O)C1CSC(c2cc3ccccc3nc2Cl)N1 (stereo not drawn) | > 4 mM (inactive) |
| Cc1nc(NC(=O)c2cccnc2)ccc1Br | > 4 mM (inactive) |
| CC(=O)OC(C)(C)[C@@H]1Cc2cc3ccc(=O)oc3cc2O1 | > 4 mM (inactive) |
| OC[C@@H]1CCCN2CCCC[C@H]12 | > 4 mM (inactive) |

| Compound | Kd |
| --- | --- |
| Cc1cc(C(=O)N2CCOCC2)c(C)o1 | > 4 mM (inactive) |
| Fc1ccc(CN2CCCNCC2)cc1 | > 4 mM (inactive) |
| CC(C)(C)CC(=O)N1CCC(C(N)=O)CC1 | > 4 mM (inactive) |
| O=C(NC(=S)NC1CCSC1=O)c1ccco1 (stereo not drawn) | > 4 mM (inactive) |
| O=C1CCCC(=O)N1Cc1ccco1 | > 4 mM (inactive) |
| O=C(Nc1ccc(Cl)cc1)N1CCCC1 | > 4 mM (inactive) |
| NCc1ccc(S(N)(=O)=O)cc1 | > 4 mM (inactive) |
| O=C(Nc1ccccc1CO)c1ccccc1F | > 4 mM (inactive) |
| COC(=O)c1ccc2nc[nH]c2c1 | > 4 mM (inactive) |
| OCc1sccc1-n1cccc1 | > 4 mM (inactive) |
| O=S1(=O)NC(=NCc2ccco2)c2ccccc21 | > 4 mM (inactive) |
| COc1c(-c2ccccc2)oc2c(OC)cccc2c1=O | > 4 mM (inactive) |
| COCC(=O)Nc1c(C(N)=O)oc2ccccc12 | > 4 mM (inactive) |
| O=c1[nH]c2sc3c(c2c2nncn12)CCCC3 | > 4 mM (inactive) |
| OCC1CCCCCN1 (stereo not drawn) | > 4 mM (inactive) |
| CC12CNCC(C)(CNC1)C2O (stereo not drawn) | > 4 mM (inactive) |
| Cc1cc(C)n(C2CCS(=O)(=O)C2)n1 (stereo not drawn) | > 4 mM (inactive) |
| Cc1nnc2ccc(N3CCCC3)nn12 | > 4 mM (inactive) |
| c1ccc(CSc2ncccn2)cc1 | > 4 mM (inactive) |
| CN(C)c1nc(N2CCOCC2)c2cnn(C)c2n1 | > 4 mM (inactive) |
| Cc1cccc(NC(=O)NC(N)=O)c1 | > 4 mM (inactive) |
| COc1cc2c(cc1OC)[C@@H]1C(=O)c3ccc4c(c3O[C@@H]1CO2)CC(C(C)C)O4 (stereo partly drawn) | > 4 mM (inactive) |
| CC(=O)NC(=S)Nc1ccc(C(C)=O)cc1 | > 4 mM (inactive) |
| CC(=O)Oc1cc(OC(C)=O)c2c(c1)O[C@H](c1ccc(OC(C)=O)c(OC(C)=O)c1)[C@H](OC(C)=O)C2 | > 4 mM (inactive) |

| Compound | Kd |
| --- | --- |
| CC(C)=NNC(=O)C(=O)NC(C)(C)C | > 4 mM (inactive) |
| Cc1ncoc1C(=O)Nc1ncc([N+](=O)[O-])s1 | > 4 mM (inactive) |
| CC(=O)Oc1c(C)cc(O)c2ccccc12 | > 4 mM (inactive) |
| CCOc1nc(C)ccc1-c1noc(-c2ccncc2)n1 | > 4 mM (inactive) |
| COc1cc2nc(-c3cccs3)oc(=O)c2cc1OC | > 4 mM (inactive) |
| O=c1[nH]c2c(c(=O)n1C1CCCCC1)CCC2 | > 4 mM (inactive) |
| Cc1ccc(C2NS(=O)(=O)N=C2N)cc1 (stereo not drawn) | > 4 mM (inactive) |
| O=C(Nc1ccc2c(c1)OCO2)c1ccc(=O)[nH]n1 | > 4 mM (inactive) |
| CNc1nc(C)nc(-n2nc(C)cc2C)n1 | > 4 mM (inactive) |
| C[C@H]1C(=O)O[C@@H]2CCN3CC=C(COC(=O)[C@](C)(O)[C@]1(C)O)[C@H]23 | > 4 mM (inactive) |
| NCc1ccc(-c2cccs2)s1 | > 4 mM (inactive) |
| NC1CS(=O)(=O)CC1O (stereo not drawn) | > 4 mM (inactive) |
| O=C1NC(=S)NC(=O)C1=Cc1ccccc1O | > 4 mM (inactive) |
| COc1ccc2cc3[n+](cc2c1OC)CCc1cc2c(cc1-3)OCO2 | > 4 mM (inactive) |
| O=C(c1cccnc1Cl)N1CCOCC1 | > 4 mM (inactive) |
| Nc1ccc2c(c1)N1CCN=C1S2 | > 4 mM (inactive) |
| CC1(C)C2CC(=O)[C@]3(C)C(CC[C@@]4(C)[C@H](c5ccoc5)OC(=O)[C@H]5O[C@]543)[C@@]2(C)C(=O)C[C@H]1O (stereo partly drawn) | > 4 mM (inactive) |
| Cc1ccc(N)nc1 | > 4 mM (inactive) |
| O=C1CCC(=O)N1c1cccc([N+](=O)[O-])c1 | > 4 mM (inactive) |
| Cc1[nH]c2ccccc2c(=O)c1CO | > 4 mM (inactive) |
| O=C(Nc1nccs1)c1ccc(=O)[nH]n1 | > 4 mM (inactive) |
| COc1cc([C@@H]2c3cc4c(cc3[C@H](O)[C@H]3COC(=O)[C@H]23)OCO4)cc(OC)c1OC | > 4 mM (inactive) |
| CCOC(=O)c1cc(C)n(-n2cnnc2)c1C | > 4 mM (inactive) |
| Cc1ccc(-c2nc(-c3cccnc3)no2)c(C)c1 | > 4 mM (inactive) |

| Compound | Kd |
| --- | --- |
| CC(=O)Nc1cccc(-c2nnc(-c3ccccc3)o2)c1 | > 4 mM (inactive) |
| COC(=O)c1cccc(N)c1 | > 4 mM (inactive) |
| [O-][n+]1onc2c1CCc1c-2nc(-c2ccccc2)n1O | > 4 mM (inactive) |
| CCC(C)C(=O)OC1[C@@H]2CC3=C4CC(=O)O[C@@H](c5ccoc5)[C@]4(C)CCC3C(C)(C2=O)[C@@H](CC(=O)OC)C1(C)C (stereo partly drawn) | > 4 mM (inactive) |
| CCOC(=O)C1C(C=C(C)C)C1(C)C (stereo not drawn) | > 4 mM (inactive) |
| COc1cc(O)c(C(=O)c2ccccc2)cc1O | > 4 mM (inactive) |
| NC(=O)C1CCN(CC2CC=CCC2)CC1 (stereo not drawn) | > 4 mM (inactive) |
| O=CN1CCN(C(=O)c2ccccc2F)CC1 | > 4 mM (inactive) |
| NC1=NCc2ccccc21 | > 4 mM (inactive) |
| CCOC12NC(=O)CC(=O)N1C(c1ccccc1)=CS2 (stereo not drawn) | > 4 mM (inactive) |
| COC(=O)c1ccc2nsnc2c1 | > 4 mM (inactive) |
| CCC(=O)Oc1ccc(N2C(=O)CCC2=O)cc1 | > 4 mM (inactive) |
| O=c1cccc2n1CC1CC2CN2CCCC[C@@H]12 (stereo partly drawn) | > 4 mM (inactive) |
| COC(=O)[C@]1(C)CCC[C@]2(C)c3ccc(C(C)C)cc3C(=O)CC12 (stereo partly drawn) | > 4 mM (inactive) |
| C=C1CCC(=O)C(C)CCC2C1CC2(C)C (stereo not drawn) | > 4 mM (inactive) |
| O=C(Nn1cnnc1)c1csc2ccccc12 | > 4 mM (inactive) |
| O=C(NC1=NCCS1)c1ccc([N+](=O)[O-])cc1Cl | > 4 mM (inactive) |
| NC(=O)/C=C/C(=O)Nc1ccccc1 | > 4 mM (inactive) |
| COCC(=O)Nc1ccc(F)cc1F | > 4 mM (inactive) |
| O=c1/c(=C/c2cccs2)sc2ncnn12 | > 4 mM (inactive) |
| CC(C)c1ccc2c(c1)CCC1[C@](C)(CN)CCC[C@]21C (stereo partly drawn) | > 4 mM (inactive) |
| Cc1onc(-c2ccccc2)c1CN | > 4 mM (inactive) |
| CC(=O)c1ccc[nH]1 | > 4 mM (inactive) |
| OCC1=Cc2ccccc2OC1 | > 4 mM (inactive) |

| Compound | Kd |
| --- | --- |
| COc1nc(C)ccc1-c1noc(-c2ccco2)n1 | > 4 mM (inactive) |
| CCC1(CC)C(=O)NC(=O)N=C1N | > 4 mM (inactive) |
| CCOC(=O)c1c(C)cc(O)c(C)c1O | > 4 mM (inactive) |
| NC(=O)CSc1nc2ccccc2o1 | > 4 mM (inactive) |
| NC(=O)c1cccc(Cl)n1 | > 4 mM (inactive) |
| Cn1c(O)c(/C=C2\C=CC=N2)c(=O)[nH]c1=O | > 4 mM (inactive) |
| C[C@]12CCC(=O)C=C1CCC1C2C(=O)C[C@@]2(C)C1CC[C@]2(O)C(=O)CO (stereo partly drawn) | > 4 mM (inactive) |
| Cc1noc(C)c1C(=O)N1CCc2ccccc21 | > 4 mM (inactive) |
| CCOC(=O)c1cc(C)n(C)n1 | > 4 mM (inactive) |
| COc1cccc(/C=C2/SC(N)=NC2=O)c1 | > 4 mM (inactive) |
| NC(=O)C1CCCN1S(=O)(=O)c1ccc(F)cc1 (stereo not drawn) | > 4 mM (inactive) |
| C[C@@H]1CC[C@@]23CCC4(C)[C@@](C=CC5[C@@]6(C)CC[C@H](O)C(C)(C)C6CC[C@]54C)(OC2=O)C3[C@H]1C (stereo partly drawn) | > 4 mM (inactive) |
| O=C(NC1CCS(=O)(=O)C1)c1ccccc1 (stereo not drawn) | > 4 mM (inactive) |
| CS(C)=C1C(=O)NC(=O)N(Cc2ccc(F)cc2)C1=O | > 4 mM (inactive) |
| COc1cc2cc[n+]3cc4c(OC)c(OC)ccc4cc3c2cc1OC | > 4 mM (inactive) |
| c1cncc(C2CCCCN2)c1 (stereo not drawn) | > 4 mM (inactive) |
| C=CCc1ccc(O)c(OC)c1 | > 4 mM (inactive) |
| COc1cccc(-c2nc(-c3ccccn3)no2)c1OC | > 4 mM (inactive) |
| COc1cccc(-c2cc(=O)c3cc(OC)ccc3o2)c1 | > 4 mM (inactive) |
| COc1cc(OC)cc(-c2nc(N)n[nH]2)c1 | > 4 mM (inactive) |
| O=c1ccc(=O)n(CN2CCc3ccccc3C2)[nH]1 | > 4 mM (inactive) |
| NCc1ccc(-c2cccs2)cc1 | > 4 mM (inactive) |
